Target: T1, Aromatase (Homo sapiens, UniProt P11511)
T1 sequence (P11511 whole entry): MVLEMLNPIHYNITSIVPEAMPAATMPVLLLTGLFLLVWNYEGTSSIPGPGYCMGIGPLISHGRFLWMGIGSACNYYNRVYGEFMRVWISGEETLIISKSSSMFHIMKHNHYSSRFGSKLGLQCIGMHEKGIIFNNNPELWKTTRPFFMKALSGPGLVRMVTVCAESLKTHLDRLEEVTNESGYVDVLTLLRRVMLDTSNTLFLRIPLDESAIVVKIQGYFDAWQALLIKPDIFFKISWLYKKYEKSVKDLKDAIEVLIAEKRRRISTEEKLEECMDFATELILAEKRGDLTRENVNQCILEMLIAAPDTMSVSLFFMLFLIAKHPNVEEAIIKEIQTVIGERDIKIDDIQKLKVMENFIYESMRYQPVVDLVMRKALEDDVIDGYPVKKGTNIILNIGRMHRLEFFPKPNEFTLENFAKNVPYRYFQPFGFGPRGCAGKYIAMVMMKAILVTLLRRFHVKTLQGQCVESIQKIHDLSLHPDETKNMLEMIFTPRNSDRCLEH
Assay: Aromatase Inhibition Activity Assay
Settings: pH 7.5; 37 °C
Experimental: Briefly, concentrated stock solutions of test compounds were prepared in acetonitrile. Hundred microliters of samples containing serial dilutions of test compounds (dilution factor of 3 between samples) and cofactor mixture (0.4 U/mL glucose-6-phosphate dehydrogenase; 16.2 μm NADP+; 825 μm MgCl2; 825 μm glucose-6- phosphate; 50 μm citrate buffer, pH 7.5) was prepared in a 96-well plate. […] The plate was covered and incubated for 30 min at 37 °C. Seventy-five microliters of 0.5 m Tris base was then added to stop the reaction, and the fluorescence of the formed de-methylated MFC was measured with a plate reader (Spectra Max Gemini; Molecular Devices, Sunnyvale, CA, USA).

| Compound | IC50 |
| --- | --- |
| Cc1c(C(=O)CSC#N)c(=O)n(-c2ccccc2)n1C [1,2-Dihydro-1,5-dimethyl-2-phenyl-4-thiocyanatoacetyl-3H-pyrazol-3-one (2)] | 6.7 nM |
| Cc1c(-c2csc(Cl)n2)c(=O)n(-c2ccccc2)n1C [2-Chloro-4-[4-(1,2-dihydro-1,5-dimethyl-2-phenyl-3-oxo-3H-pyrazol-4-yl)thiazole (26)] | 3.3 nM |
| Cc1c(-c2csc(O)n2)c(=O)n(-c2ccccc2)n1C [2-Hydroxy-4-([4-(1,2-dihydro-1,5-dimethyl-2-phenyl-3-oxo-3H-pyrazol-4-yl)thiazole (25)] | 3.5 nM |
| Cc1c(C(=O)c2nn3c(nc(=O)c4ccccc43)s2)c(=O)n(-c2ccccc2)n1C [2-[4-(1,2-Dihydro-1,5-dimethyl-2-phenyl-3-oxo-3H-pyrazol-4-yl]-1,3,4-thiazolo[3,2-a]-1,3-quinazolin-2-one (10b)] | 3.9 nM |
| Cc1c(C(=O)c2sc(=N)sc2Nc2ccccc2)c(=O)n(-c2ccccc2)n1C [4-[4-(1,2-Dihydro-1,5-dimethyl-2-phenyl-3-oxo-3H-pyrazol-4-ylcarbonyl)]-5-phenylamino-1,3-dithiole-2-imine (7)] | 4.6 nM |
